Laboratory results from ChEMBL document CHEMBL3272080, “Analogues of luteinizing hormone releasing factor modified at positions 2, 6, and 10” (J Med Chem, 1976).
*1 amine or outer side, *2 acyl side, *3 side chain or, on linkers, in order; H or OH if unused. Where a SMILES comes first, the peptide text is derived from it. [ ]: non-standard residue; d: D form. X1 = CCCCCCCCCCCCNCCC[C@@H](N[*:1])C(=O)[*:2]; pGlu = O=C1CC[C@@H](C(=O)O)N1

Legend:
[1] = Increase in luteinizing hormone secretion in rat anterior pituitary cells relative to luteinizing hormone releasing factor; type: functional, Pituitary gland cell
[2] = Retardation factor in 1-butanol-acetic acid-water at 4:1:5 ratio by TLC; type: physicochemical; details: buffer
[3] = Retardation factor in 1-butanol-ethyl acetate-acetic acid-water at 1:1:1:1 ratio by TLC; type: physicochemical; details: buffer
[4] = Retardation factor in 1-butanol-2-propanol-1 N ammonium hydroxide-ethyl acetate at 1:1:2.5:1 ratio by TLC; type: physicochemical
[5] = Retardation factor in 1-butanol-pyridine-0.1% acetic acid at 5:3:11 ratio by TLC; type: physicochemical
[6] = Retardation factor in 2-butanol-0.1 N acetic acid at 1:1 ratio by TLC; type: physicochemical
[7] = Retardation factor in ethyl acetate-pyridine-acetic acid-water at 5:5:1:3 ratio by TLC; type: physicochemical; details: buffer
[8] = Inhibition of LRF-induced luteinizing hormone secretion in rat anterior pituitary cells relative to [des-His2,D-Ala6]-LRF; type: functional, Pituitary gland cell
[9] = Retardation factor in 2-butanol-water at 1:1 ratio by TLC; type: physicochemical; details: buffer
[10] = Retardation factor in 2-butanol-0.1 N ammonium hydroxide at 1:1 ratio by TLC; type: physicochemical

Row | Rf [2] | Rf [3] | Rf [4] | Rf [5] | Rf [6] | Rf [7] | Rf [9] | Rf [10] | SMILES | fold change (FC) [1] | fold change (FC) [8]
1 | 0.35 | 0.62 | 0.25 | 0.45 | 0.24 | 0.6 |  |  | CC(C)C[C@H](NC(=O)[C@@H](CCCN)NC(=O)[C@H](Cc1ccc(O)cc1)NC(=O)[C@H](CO)NC(=O)[C@H](Cc1c[nH]c2ccccc12)NC(=O)[C@H](Cc1cnc[nH]1)NC(=O)[C@@H]1CCC(=O)N1)C(=O)N[C@@H](CCCNC(=N)N)C(=O)N1CCC[C@H]1C(=O)NCC(N)=O | 182 | 
2 | 0.4 | 0.66 | 0.31 | 0.53 | 0.27 | 0.63 |  |  | CCNC(=O)[C@@H]1CCCN1C(=O)[C@H](CCCNC(=N)N)NC(=O)[C@H](CC(C)C)NC(=O)[C@@H](CCCCN)NC(=O)[C@H](Cc1ccc(O)cc1)NC(=O)[C@H](CO)NC(=O)[C@H](Cc1c[nH]c2ccccc12)NC(=O)[C@H](Cc1cnc[nH]1)NC(=O)[C@@H]1CCC(=O)N1 | 1726 | 
3 | 0.26 | 0.65 | 0.34 | 0.47 | 0.29 | 0.69 |  |  | CCNC(=O)[C@@H]1CCCN1C(=O)[C@H](CCCNC(=N)N)NC(=O)[C@H](CC(C)C)NC(=O)[C@@H](CCCN)NC(=O)[C@H](Cc1ccc(O)cc1)NC(=O)[C@H](CO)NC(=O)[C@H](Cc1c[nH]c2ccccc12)NC(=O)[C@H](Cc1cnc[nH]1)NC(=O)[C@@H]1CCC(=O)N1 | 682 | 
4 | 0.46 | 0.74 | 0.28 | 0.54 | 0.31 | 0.67 | 0.24 |  | CC(C)C[C@H](NC(=O)[C@@H](CCCN)NC(=O)[C@H](Cc1ccc(O)cc1)NC(=O)[C@H](CO)NC(=O)[C@H](Cc1c[nH]c2ccccc12)NC(=O)[C@@H]1CCC(=O)N1)C(=O)N[C@@H](CCCNC(=N)N)C(=O)N1CCC[C@H]1C(=O)NCC(N)=O |  | 134
5 | 0.39 | 0.73 | 0.43 | 0.56 | 0.34 | 0.69 | 0.34 | 0.33 | CC(=O)NCCCC[C@@H](NC(=O)[C@H](Cc1ccc(O)cc1)NC(=O)[C@H](CO)NC(=O)[C@H](Cc1c[nH]c2ccccc12)NC(=O)[C@H](Cc1cnc[nH]1)NC(=O)[C@@H]1CCC(=O)N1)C(=O)N[C@@H](CC(C)C)C(=O)N[C@@H](CCCNC(=N)N)C(=O)N1CCC[C@H]1C(=O)NCC(N)=O | 274 | 
6 | 0.4 | 0.72 | 0.43 | 0.59 | 0.39 | 0.34 | 0.38 | 0.36 | CCCCCCCCCCCCNCCC[C@@H](NC(=O)[C@H](Cc1ccc(O)cc1)NC(=O)[C@H](CO)NC(=O)[C@H](Cc1c[nH]c2ccccc12)NC(=O)[C@H](Cc1cnc[nH]1)NC(=O)[C@@H]1CCC(=O)N1)C(=O)N[C@@H](CC(C)C)C(=O)N[C@@H](CCCNC(=N)N)C(=O)N1CCC[C@H]1C(=O)NCC(N)=O | 290 | 
7 | 0.38 | 0.7 | 0.43 | 0.57 | 0.34 | 0.66 | 0.33 | 0.34 | CC(=O)NCCC[C@@H](NC(=O)[C@H](Cc1ccc(O)cc1)NC(=O)[C@H](CO)NC(=O)[C@H](Cc1c[nH]c2ccccc12)NC(=O)[C@H](Cc1cnc[nH]1)NC(=O)[C@@H]1CCC(=O)N1)C(=O)N[C@@H](CC(C)C)C(=O)N[C@@H](CCCNC(=N)N)C(=O)N1CCC[C@H]1C(=O)NCC(N)=O | 101 | 
8 | 0.31 | 0.57 | 0.24 | 0.42 | 0.24 | 0.58 |  |  | CC(C)C[C@H](NC(=O)[C@@H](CCCCN)NC(=O)[C@H](Cc1ccc(O)cc1)NC(=O)[C@H](CO)NC(=O)[C@H](Cc1c[nH]c2ccccc12)NC(=O)[C@H](Cc1cnc[nH]1)NC(=O)[C@@H]1CCC(=O)N1)C(=O)N[C@@H](CCCNC(=N)N)C(=O)N1CCC[C@H]1C(=O)NCC(N)=O | 383 | 
9 | 0.35 | 0.73 | 0.26 | 0.47 | 0.33 | 0.71 | 0.25 |  | CC(C)C[C@H](NC(=O)[C@@H](CCCCN)NC(=O)[C@H](Cc1ccc(O)cc1)NC(=O)[C@H](CO)NC(=O)[C@H](Cc1c[nH]c2ccccc12)NC(=O)[C@@H]1CCC(=O)N1)C(=O)N[C@@H](CCCNC(=N)N)C(=O)N1CCC[C@H]1C(=O)NCC(N)=O ([pGlu]WSY[dK]LRPG-NH2) |  | 123

The next lines start with the molecule.

Row | SMILES | Rf [2] | Rf [3] | Rf [4] | Rf [5] | Rf [6] | Rf [7] | Rf [9] | Rf [10] | fold change (FC) [1] | fold change (FC) [8]
10 | CCNC(=O)[C@@H]1CCCN1C(=O)[C@H](CCCNC(=N)N)NC(=O)[C@H](CC(C)C)NC(=O)[C@@H](CCCCN)NC(=O)[C@H](Cc1ccc(O)cc1)NC(=O)[C@H](CO)NC(=O)[C@H](Cc1c[nH]c2ccccc12)NC(=O)[C@@H]1CCC(=O)N1 | 0.49 | 0.76 | 0.37 | 0.59 | 0.35 | 0.71 | 0.31 |  |  | 97
11 | CCNC(=O)[C@@H]1CCCN1C(=O)[C@H](CCCNC(=N)N)NC(=O)[C@H](CC(C)C)NC(=O)[C@@H](CCCN)NC(=O)[C@H](Cc1ccc(O)cc1)NC(=O)[C@H](CO)NC(=O)[C@H](Cc1c[nH]c2ccccc12)NC(=O)[C@@H]1CCC(=O)N1 | 0.54 | 0.78 | 0.38 | 0.63 | 0.36 | 0.71 | 0.28 |  |  | 105
12 | CCCCCCCCCCCCNCCCC[C@@H](NC(=O)[C@H](Cc1ccc(O)cc1)NC(=O)[C@H](CO)NC(=O)[C@H](Cc1c[nH]c2ccccc12)NC(=O)[C@H](Cc1cnc[nH]1)NC(=O)[C@@H]1CCC(=O)N1)C(=O)N[C@@H](CC(C)C)C(=O)N[C@@H](CCCNC(=N)N)C(=O)N1CCC[C@H]1C(=O)NCC(N)=O | 0.4 | 0.74 | 0.44 | 0.56 | 0.38 | 0.35 | 0.37 | 0.37 | 164 | 
13 | CCCCCCCCCCCCNCCCC[C@@H](NC(=O)[C@H](Cc1ccc(O)cc1)NC(=O)[C@H](CO)NC(=O)[C@H](Cc1c[nH]c2ccccc12)NC(=O)[C@H](Cc1cnc[nH]1)NC(=O)[C@@H]1CCC(=O)N1)C(=O)N[C@@H](CC(C)C)C(=O)N[C@@H](CCCNC(=N)N)C(=O)N1CCC[C@H]1C(=O)NCC | 0.42 | 0.72 | 0.47 | 0.61 | 0.43 | 0.4 | 0.39 | 0.38 | 1038 | 
14 | CCCCCCCCCCCCNCCC[C@@H](NC(=O)[C@H](Cc1ccc(O)cc1)NC(=O)[C@H](CO)NC(=O)[C@H](Cc1c[nH]c2ccccc12)NC(=O)[C@H](Cc1cnc[nH]1)NC(=O)[C@@H]1CCC(=O)N1)C(=O)N[C@@H](CC(C)C)C(=O)N[C@@H](CCCNC(=N)N)C(=O)N1CCC[C@H]1C(=O)NCC | 0.45 | 0.72 | 0.46 | 0.62 | 0.43 | 0.38 | 0.4 | 0.37 | 490 | 
15 | CCCCCCCCCCCCNCCCC[C@@H](NC(=O)[C@H](Cc1ccc(O)cc1)NC(=O)[C@H](CO)NC(=O)[C@H](Cc1c[nH]c2ccccc12)NC(=O)[C@@H]1CCC(=O)N1)C(=O)N[C@@H](CC(C)C)C(=O)N[C@@H](CCCNC(=N)N)C(=O)N1CCC[C@H]1C(=O)NCC(N)=O | 0.52 | 0.78 | 0.44 | 0.66 | 0.46 | 0.48 | 0.44 | 0.43 |  | 284
16 | CCCCCCCCCCCCNCCCC[C@@H](NC(=O)[C@H](Cc1ccc(O)cc1)NC(=O)[C@H](CO)NC(=O)[C@H](Cc1c[nH]c2ccccc12)NC(=O)[C@@H]1CCC(=O)N1)C(=O)N[C@@H](CC(C)C)C(=O)N[C@@H](CCCNC(=N)N)C(=O)N1CCC[C@H]1C(=O)NCC | 0.63 | 0.83 | 0.47 | 0.73 | 0.52 | 0.53 | 0.46 | 0.45 |  | 276
17 | CCCCCCCCCCCCNCCC[C@@H](NC(=O)[C@H](Cc1ccc(O)cc1)NC(=O)[C@H](CO)NC(=O)[C@H](Cc1c[nH]c2ccccc12)NC(=O)[C@@H]1CCC(=O)N1)C(=O)N[C@@H](CC(C)C)C(=O)N[C@@H](CCCNC(=N)N)C(=O)N1CCC[C@H]1C(=O)NCC ([pGlu]WSY[X1]LRP-NHEt) | 0.64 | 0.84 | 0.49 | 0.71 | 0.51 | 0.55 | 0.47 | 0.46 |  | 153
18 | CCCCCCCCCCCCNCCC[C@@H](NC(=O)[C@H](Cc1ccc(O)cc1)NC(=O)[C@H](CO)NC(=O)[C@H](Cc1c[nH]c2ccccc12)NC(=O)[C@@H]1CCC(=O)N1)C(=O)N[C@@H](CC(C)C)C(=O)N[C@@H](CCCNC(=N)N)C(=O)N1CCC[C@H]1C(=O)NCC(N)=O ([pGlu]WSY[X1]LRPG-NH2) | 0.53 | 0.78 | 0.44 | 0.67 | 0.47 | 0.48 | 0.45 | 0.43 |  | 278
